Active and inactive are the calls of the source. The calls are words filed in the database; no cut-off is given here.
Legend:
MOLT-4 [1] = test: Induction of apoptosis in human MOLT-4 cells assessed as early apoptotic cells at 10 nM measured after 48 hrs by Alexa Fluor 647-Annexin V/propidium iodide staining based flow cytometry (reference value: 1.5 to 1.7%); type: functional
[2] = Selectivity index, ratio of IC50 for human platelet to IC50 for human MOLT-4 cells
MOLT-4 [3] = test: Induction of apoptosis in human MOLT-4 cells assessed as necrotic cells at 100 nM measured after 48 hrs in presence of pan-caspase inhibitor QVD by Alexa Fluor 647-Annexin V/propidium iodide staining based flow cytometry (reference value: 0.3 to 0.4%); type: functional
MOLT-4 [4] = test: Induction of apoptosis in human MOLT-4 cells assessed as late apoptotic cells at 100 nM measured after 48 hrs by Alexa Fluor 647-Annexin V/propidium iodide staining based flow cytometry (reference value: 1.1 to 1.4%); type: functional
MOLT-4 [5] = test: Induction of apoptosis in human MOLT-4 cells assessed as early apoptotic cells at 100 nM measured after 48 hrs in presence of pan-caspase inhibitor QVD by Alexa Fluor 647-Annexin V/propidium iodide staining based flow cytometry (reference value: 1.5 to 1.7%); type: functional
MOLT-4 [6] = test: Induction of apoptosis in human MOLT-4 cells assessed as necrotic cells at 100 nM measured after 48 hrs by Alexa Fluor 647-Annexin V/propidium iodide staining based flow cytometry (reference value: 0.3 to 0.4%); type: functional
MOLT-4 [7] = test: Induction of apoptosis in human MOLT-4 cells assessed as late apoptotic cells at 100 nM measured after 48 hrs in presence of pan-caspase inhibitor QVD by Alexa Fluor 647-Annexin V/propidium iodide staining based flow cytometry (reference value: 1.1 to 1.4%); type: functional
NCI-H146 = test: Antiproliferative activity against human NCI-H146 cells assessed as reduction in cell viability measured after 48 hrs by MTS assay; type: functional, cell-based; details: NCI-H146, 48 h
MOLT-4 [8] = test: Induction of apoptosis in human MOLT-4 cells assessed as viable cells at 100 nM measured after 48 hrs in presence of pan-caspase inhibitor QVD by Alexa Fluor 647-Annexin V/propidium iodide staining based flow cytometry (reference value: 97.1 to 97.3%); type: functional; details: read-out: Activity
MOLT-4 [9] = test: Induction of apoptosis in human MOLT-4 cells assessed as necrotic cells at 10 nM measured after 48 hrs by Alexa Fluor 647-Annexin V/propidium iodide staining based flow cytometry (reference value: 0.3 to 0.4%); type: functional
MOLT-4 [10] = test: Induction of apoptosis in human MOLT-4 cells assessed as viable cells at 100 nM measured after 48 hrs by Alexa Fluor 647-Annexin V/propidium iodide staining based flow cytometry (reference value: 97.1 to 97.3%); type: functional; details: read-out: Activity
MOLT-4 [11] = test: Induction of apoptosis in human MOLT-4 cells assessed as early apoptotic cells at 100 nM measured after 48 hrs by Alexa Fluor 647-Annexin V/propidium iodide staining based flow cytometry (reference value: 1.5 to 1.7%); type: functional
MOLT-4 [12] = test: Induction of apoptosis in human MOLT-4 cells assessed as late apoptotic cells at 10 nM measured after 48 hrs by Alexa Fluor 647-Annexin V/propidium iodide staining based flow cytometry (reference value: 1.1 to 1.4%); type: functional
RS4-11 = test: Antiproliferative activity against human RS4-11 cells assessed as reduction in cell viability measured after 48 hrs by MTS assay; type: functional, cell-based; details: RS4-11, 48 h
[13] = Toxicity in human platelet assessed as reduction in cell viability measured after 48 hrs by MTS assay; type: tissue-based; details: human platelets
MOLT-4 [14] = test: Antiproliferative activity against human MOLT-4 cells assessed as reduction in cell viability measured after 48 hrs by MTS assay; type: functional, cell-based; details: MOLT-4, 48 h
MOLT-4 [15] = test: Induction of apoptosis in human MOLT-4 cells assessed as viable cells at 10 nM measured after 48 hrs by Alexa Fluor 647-Annexin V/propidium iodide staining based flow cytometry (reference value: 97.1 to 97.3%); type: functional; details: read-out: Activity
[16] = biological target: T1, Protein cereblon/Bcl-2-like protein 1 (Homo sapiens, UniProt Q07817+Q96SW2); test: Protac activity at CRBN/BCL-XL in human MOLT-4 cells assessed as induction of BCL-XL degradation at 33 to 1000 nM measured after 16 hrs by immunoblotting analysis; type: cell-based; details: dose 33-1000 nM
[17] = biological target: T1, Protein cereblon/Bcl-2-like protein 1; test: Protac activity at CRBN/BCL-XL in human MOLT-4 cells assessed as induction of BCL-XL degradation at 3.7 to 300 nM measured after 16 hrs in presence of proteasome inhibitor MG-132 by immunoblotting analysis; type: cell-based; details: dose 3.7-300 nM
[18] = biological target: T2, Cereblon/Ikaros (Homo sapiens) (UniProt Q96SW2+Q13422); test: Protac activity at CRBN/IKZF1 in human MOLT-4 cells assessed as induction of IKZF1 degradation at 100 nM measured after 16 hrs by immunoblotting analysis; type: cell-based
[19] = biological target: T2, Cereblon/Ikaros (Homo sapiens); test: Protac activity at CRBN/IKZF1 in human MOLT-4 cells assessed as induction of IKZF1 degradation at 10 nM measured after 16 hrs by immunoblotting analysis; type: cell-based
[20] = biological target: T3, Protein cereblon/Zinc finger protein Aiolos (Homo sapiens) (UniProt Q96SW2+Q9UKT9); test: Protac activity at CRBN/IKZF3 in human MOLT-4 cells assessed as induction of IKZF3 degradation at 10 nM measured after 16 hrs by immunoblotting analysis; type: cell-based
[21] = biological target: T1, Protein cereblon/Bcl-2-like protein 1; test: Protac activity at CRBN/BCL-XL in human MOLT-4 cells assessed as induction of BCL-XL degradation at 100 nM measured after 8 hrs by immunoblotting analysis relative to control; type: cell-based
MOLT-4 [22] = test: Induction of apoptosis in human MOLT-4 cells assessed as increase in cleaved PARP expression measured after 16 hrs by immunoblotting analysis; type: functional, cell-based
MOLT-4 [23] = test: Induction of apoptosis in human MOLT-4 cells assessed as increase in cleaved caspase-3 expression measured after 16 hrs by immunoblotting analysis; type: functional, cell-based
[24] = biological target: Protein cereblon/Apoptosis regulator Bcl-2 (Homo sapiens) (UniProt P10415+Q96SW2); test: Protac activity at CRBN/BCL2 in human MOLT-4 cells assessed as induction of BCL2 degradation at 50 nM measured after 16 hrs by immunoblotting analysis; type: cell-based
[25] = Ratio of IC50 for human MOLT-4 cells in presence of pomalidomide to IC50 for human MOLT-4 cells; type: functional
[26] = biological target: T1, Protein cereblon/Bcl-2-like protein 1; test: Protac activity at CRBN/BCL-XL in human MOLT-4 cells assessed as induction of BCL-XL degradation at 100 nM preincubated for 16 hrs followed by compound washout by immunoblotting analysis; type: cell-based
[27] = biological target: T3, Protein cereblon/Zinc finger protein Aiolos (Homo sapiens); test: Protac activity at CRBN/IKZF3 in human MOLT-4 cells assessed as induction of IKZF3 degradation at 100 nM measured after 16 hrs by immunoblotting analysis; type: cell-based
[28] = biological target: T1, Protein cereblon/Bcl-2-like protein 1; test: Protac activity at CRBN/BCL-XL in human MOLT-4 cells assessed as induction of BCL-XL degradation at 10 to 100 nM measured after 16 hrs in presence of competitive CRBN ligand pomalidomide by immunoblotting analysis; type: cell-based; details: dose 10-100 nM
MOLT-4 [29] = test: Potency index, ratio of ABT-263 IC50 to test compound IC50 for antiproliferative activity against human MOLT-4 cells assessed as reduction in cell viability measured after 48 hrs by MTS assay; type: functional
[30] = biological target: T1, Protein cereblon/Bcl-2-like protein 1; test: Protac activity at CRBN/BCL-XL in human MOLT-4 cells assessed as induction of BCL-XL degradation at 100 nM measured within 2 hrs by immunoblotting analysis; type: cell-based
[31] = biological target: T1, Protein cereblon/Bcl-2-like protein 1; test: Protac activity at CRBN/BCL-XL in human MOLT-4 cells assessed as induction of BCL-XL degradation by measuring remaining BCL-XL level at 50 nM measured after 16 hrs by immunoblotting analysis relative to control; type: cell-based
[32] = biological target: T1, Protein cereblon/Bcl-2-like protein 1; test: Protac activity at CRBN/BCL-XL in human MOLT-4 cells assessed as induction of BCL-XL degradation measured after 16 hrs by immunoblotting analysis; type: cell-based
[33] = biological target: T1, Protein cereblon/Bcl-2-like protein 1; test: Protac activity at CRBN/BCL-XL in human platelet assessed as induction of BCL-XL degradation up to 1 uM measured after 16 hrs by immunoblotting analysis; details: dose microM <=1, time 16.0 hrs

Row | SMILES | Activity (MOLT-4 [1]) [%] | Ratio IC50 [2] | Activity (MOLT-4 [3]) [%] | Activity (MOLT-4 [4]) [%] | Activity (MOLT-4 [5]) [%] | Activity (MOLT-4 [6]) [%] | Activity (MOLT-4 [7]) [%] | IC50 (NCI-H146) [nM] | viability at 0.1 µM (MOLT-4 [8]) [%] | Activity (MOLT-4 [9]) [%] | viability at 0.1 µM (MOLT-4 [10]) [%] | Activity (MOLT-4 [11]) [%] | Activity (MOLT-4 [12]) [%] | IC50 (RS4-11) [nM] | IC50 at 48 h [13] [nM] | IC50 (MOLT-4 [14]) [nM] | viability at 0.01 µM (MOLT-4 [15]) [%] | also measured
1 | CN(C)CC[C@H](CSc1ccccc1)Nc1ccc(S(=O)(=O)NC(=O)c2ccc(N3CCN(Cc4ccccc4-c4ccc(Cl)cc4)CC3)cc2)cc1[N+](=O)[O-] [ABT 737] | 2.5 | 1.1 | 5.4 | 11.6 | 2.6 | 0.4 | 8.6 | 43.8 | 83.1 | 0.1 | 40.7 | 47.4 | 1.4 | 49 | 242 | 227 | 96 | –
2 | CN(CCOCCOCCOCCNc1cccc2c1C(=O)N([C@@H]1CCC(=O)N(C)C1=O)C2=O)CC[C@H](CSc1ccccc1)Nc1ccc(S(=O)(=O)NC(=O)c2ccc(N3CCN(CC4=C(c5ccc(Cl)cc5)CCC(C)(C)C4)CC3)cc2)cc1S(=O)(=O)C(F)(F)F | – | – | – | – | – | – | – | – | – | – | – | – | – | – | – | – | – | Activity [16]: inactive
3 | CN(CCOCCOCCOCCNc1cccc2c1C(=O)N([C@@H]1CCC(=O)NC1=O)C2=O)CC[C@H](CSc1ccccc1)Nc1ccc(S(=O)(=O)NC(=O)c2ccc(N3CCN(CC4=C(c5ccc(Cl)cc5)CCC(C)(C)C4)CC3)cc2)cc1S(=O)(=O)C(F)(F)F | 58.1 | 120 | 1.3 | 52.7 | 18.7 | 0.2 | 56.7 | 25.3 | 23.1 | 1 | 1.4 | 45.5 | 18.7 | 41.8 | 1220 | 10.1 | 21.9 | Activity [17]: inactive; Activity [18]: Active; Activity [19]: inactive; Activity [20]: inactive; Activity [21]: > 96%; Activity (MOLT-4 [22]): Dose-dependent effect; Activity (MOLT-4 [23]): Dose-dependent effect; Activity [24]: inactive; Ratio IC50 [25]: 27; Activity [26]: inactive; Activity [27]: Active; Activity [28]: inactive; Ratio IC50 (MOLT-4 [29]): 22; Activity [30]: Active; Activity [31]: 4%; Activity [32]: Dose-dependent effect; DC50 [32]: 2.5 nM; Activity [33]: inactive

Source: ChEMBL document CHEMBL4680217, “Discovery of PROTAC BCL-X degraders as potent anticancer agents with low on-target platelet toxicity” (Eur J Med Chem, 2020)
